Each molecule was assayed on T1, EstPS1 (assay: pesticide hydrolysis, gas chromatography, Lineweaver-Burk). Details: 50 mM Tris-HCl pH 8.0, 40 °C (degradation assay); stated substrate range 10 to 500 μM.
T1 construct: full-length ORF with signal peptide (24 residues) and autotransporter domain (357-640); N-terminal His-tag, pET-28a, E. coli BL21(DE3), Ni-NTA; 640 residues, 68 kDa
Assay type: biochemical, Pseudomonas synxantha
Excerpt: pesticide hydrolysis, gas chromatography, Lineweaver-Burk on EstPS1

| SMILES | Km [µM] |
| --- | --- |
| Cc1c(COC(=O)[C@@H]2[C@H](/C=C(\Cl)C(F)(F)F)C2(C)C)cccc1-c1ccccc1 (racemic) [Bifenthrin] | 1.25 ± 0.061 |
| CNC(=O)Oc1cccc2ccccc12 [Carbaryl] | 0.21 ± 0.01 |
| CC1(C)C(C(=O)OC(C#N)c2cccc(Oc3ccccc3)c2)C1(C)C (stereo not drawn) [Fenpropathrin] | 0.25 ± 0.014 |
| CC(C)C(C(=O)OC(C#N)c1cccc(Oc2ccccc2)c1)c1ccc(Cl)cc1 (stereo not drawn) [Fenvalerate] | 0.84 ± 0.042 |
| CC1(C)C(C=C(Cl)Cl)C1C(=O)OC(C#N)c1cccc(Oc2ccccc2)c1 (stereo not drawn) [cis-Cypermethrin] | 0.62 ± 0.031 |
| CC1(C)C(C=C(Cl)Cl)C1C(=O)OC(C#N)c1cccc(Oc2ccccc2)c1 (stereo not drawn) [trans-Cypermethrin] | 0.53 ± 0.028 |

Each molecule was assayed on T1, EstPS1 (assay: p-nitrophenol release at […] nm, Lineweaver-Burk). Details: 50 mM Tris-HCl pH 8.0, 60 °C.
Assay type: biochemical, Pseudomonas synxantha

| SMILES | Km [µM] |
| --- | --- |
| CC(=O)Oc1ccc([N+](=O)[O-])cc1 [p-Nitrophenyl acetate] | 102 ± 12 |
| CCCC(=O)Oc1ccc([N+](=O)[O-])cc1 [p-Nitrophenyl butyrate] | 43 ± 8 |
| CCCCCC(=O)Oc1ccc([N+](=O)[O-])cc1 [p-Nitrophenyl caproate] | 76 ± 7 |
| CCCCCCCC(=O)Oc1ccc([N+](=O)[O-])cc1 [p-Nitrophenyl caprylate] | 61 ± 10 |
| CCCCCCCCCC(=O)Oc1ccc([N+](=O)[O-])cc1 [p-Nitrophenyl decanoate] | 362 ± 13 |
| CCCCCCCCCCCC(=O)Oc1ccc([N+](=O)[O-])cc1 [p-Nitrophenyl laurate] | 391 ± 9 |
